These results are taken from patent US20040006236A1, “Diaminopropionic acid derivatives” (priority 1999, published 2004).

What is called IC50 is the concentration that inhibits the measured activity by half.

This assay has as its system Mac-1 and LFA-1-mediated neutrophil binding to immobilized ICAM-1. Nature of the assay: Neutrophil (Mac-1 and LFA-1)/ICAM-1 cell-based screening assay. To be noted: human neutrophils. Here is the method: Both Mac-1 and LFA-1 are expressed on the cell surface of neutrophils. The ability of antagonists to inhibit Mac-1 and LFA-1-mediated neutrophil binding to immobilized ICAM-1 was quantitated by a cell based assay. Typically, fusion protein consisting of the entire extracellular domain of human ICAM-1 and the Fc domain of human IgG (5dICAM-Ig) was coated onto 96 well microtiter plates (1 μg in 100 μL TBS) overnight at 4° C. The plates were then blocked with 150 μL of 10% PVP in TBS for 1 h at 37° C. Plates were washed 3 times (150 μL each) with TBS. Human neutrophils were purified from whole blood from healthy volunteers using LSM (ICN). Cells (8×10^6/mL) were fluorescently labeled with 6-carboxyfluorescein (100 μg/mL) for 40 min in IMDM/1 mM MgCl2/1.2 mM CaCl2 as described in Example 287. Cells (8×10^6/mL) were stimulated with f-Met-Leu-Phe (10 μM) for 5 min at room temperature just prior to being used in the assay, and diluted to 2×10^6 cells/mL with RPMI/0.05% BSA/0.2 mM MnCl2. Stock solutions (10 mM) of test compounds were diluted to 2.5 mM with DMSO. A series of 1:4 dilutions in DMSO were performed to achieve a concentration range of 38.2 nM-2.5 mM. Each sample was further diluted 50-fold with RPMI/0.05% BSA/0.2 mM MnCl2. Equal volumes of labeled cells were then added to assay tubes containing diluted compound. Final concentrations of compound tested in the assay ranged from 0.38 nM-25 μM with a cell concentration of 1×10^6 per mL. Cells were incubated for 10 min at 37° C. with gentle shaking, then dispensed (100 μL per well) onto ICAM-1 coated plates and incubated for 30 min at 37° C./5% CO2. Unbound cells were washed and plates were read on a Cytofluor™ 2300 (Millipore) as described in Example 384.
`COc1cccc(C(=O)NC[C@H](NC(=O)c2ccc(C(=O)NCc3cccc(O)c3)cc2Cl)C(=O)O)c1` [Example 76, N-[2-chloro-4-[[[(3-hydroxyphenyl)methyl]amino]-carbonyl]benzoyl]-3-(3-methoxybenzoylamino)-L-alanine] came in with an IC50 of 63 nM. `CC1(C(=O)NC[C@H](NC(=O)c2ccc(C(=O)NCc3cccc(O)c3)cc2Cl)C(=O)O)CCCCC1` [Example 105]: the IC50 was 94 nM. To `Nc1cccc(C(=O)NC[C@H](NC(=O)c2ccc(C(=O)NCc3cccc(O)c3)cc2Cl)C(=O)O)c1` [Example 118] belongs 37 nM; to `NS(=O)(=O)c1ccc(C(=O)NC[C@H](NC(=O)c2ccc(C(=O)NCc3cccc(O)c3)cc2Cl)C(=O)O)cc1` [Example 119], 220 nM. The same measure for `O=C(NCc1cccc(O)c1)c1ccc(C(=O)N[C@@H](CNC(=O)c2cccc(Cl)c2)C(=O)O)c(Cl)c1` [Example 123]: 21 nM; for `O=C(NCc1cccc(O)c1)c1ccc(C(=O)N[C@@H](CNC(=O)c2cccc(F)c2)C(=O)O)c(Cl)c1` [Example 131]: 27 nM. The same measure for `O=C(NCc1cccc(O)c1)c1ccc(C(=O)N[C@@H](CNC(=O)c2cccc(O)c2)C(=O)O)c(Cl)c1` [Example 132]: 4.9 nM; for `Cc1cccc(C(=O)NC[C@H](NC(=O)c2ccc(C(=O)NCc3cccc(O)c3)cc2Cl)C(=O)O)c1` [Example 138]: 31 nM. As to `O=C(NCc1cccc(O)c1)c1ccc(C(=O)N[C@@H](CNC(=O)c2ccc(Br)s2)C(=O)O)c(Cl)c1` [Example 155], the IC50 worked out at 65 nM.

`Cc1ccc(C(=O)NC[C@H](NC(=O)c2ccc(C(=O)NCc3cccc(O)c3)cc2Cl)C(=O)O)s1` [Example 160] showed an IC50 of 23 nM. With `O=C(NCc1cccc(O)c1)c1ccc(C(=O)N[C@@H](CNC(=O)c2ccsc2)C(=O)O)c(Cl)c1` [Example 161], the half-maximal inhibitory concentration (IC50) amounted to 44 nM. To `C[C@@H](NC(=O)c1cc(Cl)c(C(=O)N[C@@H](CNC(=O)c2cccs2)C(=O)O)c(Cl)c1)c1cccc2ccccc12` [Example 346, N-[2,6-dichloro-4-[[[(1R)-1-(1-naphthalenyl)ethyl]amino]carbonyl]benzoyl]-3-[(thiophene-2-carbonyl)amino]-L-alanine] belongs 9.7 nM; to `C[C@@H](NC(=O)c1cc(Cl)c(C(=O)N[C@@H](CNC(=O)c2ccccc2)C(=O)O)c(Cl)c1)c1cccc2ccccc12` [Example 347], 16.1 nM; to `O=C(NCc1cccc(O)c1)c1cc(Cl)c(C(=O)N[C@@H](CNC(=O)c2cccc(F)c2)C(=O)O)c(Cl)c1` [Example 349], 4.7 nM.

Regarding `O=C(NCc1cccc(O)c1)c1cc(Cl)c(C(=O)N[C@@H](CNC(=O)c2cccc(O)c2)C(=O)O)c(Cl)c1` [Example 350], the IC50 was determined as 0.7 nM. The same measure for `COc1ccc(C(=O)NC[C@H](NC(=O)c2c(Cl)cc(C(=O)NCc3cccc(O)c3)cc2Cl)C(=O)O)cc1O` [Example 351]: 2.7 nM; for `O=C(NCc1cccc(O)c1)c1cc(Cl)c(C(=O)N[C@@H](CNC(=O)c2sccc2Br)C(=O)O)c(Cl)c1` [Example 353]: 18.6 nM; for `O=C(NCc1cccc(O)c1)c1cc(Cl)c(C(=O)N[C@@H](CNC(=O)c2ccc(Br)s2)C(=O)O)c(Cl)c1` [Example 354]: 4.7 nM. To `Cc1ccc(C(=O)NC[C@H](NC(=O)c2c(Cl)cc(C(=O)NCc3cccc(O)c3)cc2Cl)C(=O)O)s1` [Example 358] belongs 4.3 nM.
